Data: article PMC11157767 (Molecular Cancer, 2024)

Test system: TFG-MET allograft tumors
Experiment: RNA-sequencing, differential expression and GSEA of TFG-MET allograft tumors
Format: in vivo, mouse
Protocol: Error bars display standard error of mean, statistical significance was determined using t-test analysis. (****;p<0.0001, ***;p<0.001, **;p<0.01, *;p<0.05). […] Each dot represents an individual replicate. Error bars display standard error of the mean.
Each dot represents one gene.

[1] = GSEA CAP vs Veh, C5 GO CC, padj 0.0837675
[2] = GSEA CAP vs Veh, C5 GO CC, padj 0.118081
[3] = GSEA CAP vs Veh, C5 GO CC, padj 0.15025
[4] = GSEA CAP vs Veh, C5 GO CC, padj 0.172143
[5] = GSEA CAP vs Veh, C5 GO CC, padj 0.185573
[6] = GSEA CAP vs Veh, C5 GO CC, padj 0.189724
[7] = GSEA CAP vs Veh, C5 GO CC, padj 0.205885
[8] = GSEA CAP vs Veh, C5 GO CC, padj 0.207988
[9] = capmatinib vs vehicle, PD cohort

CNC(=O)c1ccc(-c2cnc3ncc(Cc4ccc5ncccc5c4)n3n2)cc1F [Capmatinib]
NES GOCC_TRIGLYCERIDE_RICH_PLASMA_LIPOPROTEIN_PARTICLE [1]: 1.6067
NES GOCC_VESICLE_TETHERING_COMPLEX [1]: 1.4789
NES GOCC_IMMUNOLOGICAL_SYNAPSE (GSEA CAP vs Veh, C5 GO CC, padj 0.0851978): 1.513
NES GOCC_TOR_COMPLEX (GSEA CAP vs Veh, C5 GO CC, padj 0.0863609): -1.558
NES GOCC_POTASSIUM_CHANNEL_COMPLEX (GSEA CAP vs Veh, C5 GO CC, padj 0.0898434): 1.3322
NES GOCC_PHOTORECEPTOR_OUTER_SEGMENT (GSEA CAP vs Veh, C5 GO CC, padj 0.0912598): 1.398
NES GOCC_NON_MOTILE_CILIUM (GSEA CAP vs Veh, C5 GO CC, padj 0.0963826): 1.327
NES GOCC_COLLAGEN_TRIMER (GSEA CAP vs Veh, C5 GO CC, padj 0.100203): 1.361
NES GOCC_CYCLIN_DEPENDENT_PROTEIN_KINASE_HOLOENZYME_COMPLEX (GSEA CAP vs Veh, C5 GO CC, padj 0.101289): -1.485
NES GOCC_PHAGOPHORE_ASSEMBLY_SITE_MEMBRANE (GSEA CAP vs Veh, C5 GO CC, padj 0.101632): 1.59
NES GOCC_MICROTUBULE_END (GSEA CAP vs Veh, C5 GO CC, padj 0.104588): -1.488
NES GOCC_MRNA_CLEAVAGE_AND_POLYADENYLATION_SPECIFICITY_FACTOR_COMPLEX (GSEA CAP vs Veh, C5 GO CC, padj 0.106777): -1.514
NES GOCC_PERICENTRIOLAR_MATERIAL (GSEA CAP vs Veh, C5 GO CC, padj 0.107544): -1.541
NES GOCC_SPERM_MIDPIECE (GSEA CAP vs Veh, C5 GO CC, padj 0.11014): 1.543
NES GOCC_FILAMENTOUS_ACTIN (GSEA CAP vs Veh, C5 GO CC, padj 0.113803): -1.495
NES GOCC_CONDENSED_NUCLEAR_CHROMOSOME (GSEA CAP vs Veh, C5 GO CC, padj 0.117551): -1.436
NES GOCC_ENDOPLASMIC_RETICULUM_EXIT_SITE [2]: -1.477
NES GOCC_MITOTIC_SPINDLE [2]: -1.3459
NES GOCC_TERTIARY_GRANULE_LUMEN [2]: 1.448
NES GOCC_MICROTUBULE_ORGANIZING_CENTER (GSEA CAP vs Veh, C5 GO CC, padj 0.119924): -1.201
NES GOCC_ESC_E_Z_COMPLEX (GSEA CAP vs Veh, C5 GO CC, padj 0.125326): -1.503
NES GOCC_MITOCHONDRIAL_PROTEIN_CONTAINING_COMPLEX (GSEA CAP vs Veh, C5 GO CC, padj 0.144325): 1.2339
NES GOCC_MICROBODY_LUMEN [3]: 1.378
NES GOCC_PLATELET_DENSE_GRANULE [3]: 1.446
NES GOCC_POSTSYNAPTIC_CYTOSOL [3]: -1.504
NES GOCC_DNA_HELICASE_COMPLEX (GSEA CAP vs Veh, C5 GO CC, padj 0.150544): -1.462
NES GOCC_H4_H2A_HISTONE_ACETYLTRANSFERASE_COMPLEX (GSEA CAP vs Veh, C5 GO CC, padj 0.153451): -1.479
NES GOCC_T_TUBULE (GSEA CAP vs Veh, C5 GO CC, padj 0.166785): 1.333
NES GOCC_CELL_DIVISION_SITE [4]: -1.364
NES GOCC_CILIARY_MEMBRANE [4]: 1.297
NES GOCC_NUCLEAR_INNER_MEMBRANE [4]: -1.39
NES GOCC_SPERM_PRINCIPAL_PIECE [4]: 1.449
NES GOCC_PROTEIN_KINASE_COMPLEX (GSEA CAP vs Veh, C5 GO CC, padj 0.174487): -1.355
NES GOCC_SARCOPLASMIC_RETICULUM_MEMBRANE (GSEA CAP vs Veh, C5 GO CC, padj 0.176238): 1.347
NES GOCC_TRANSCRIPTION_FACTOR_TFIID_COMPLEX (GSEA CAP vs Veh, C5 GO CC, padj 0.181046): -1.393
NES GOCC_ENDOSOME_LUMEN [5]: 1.406
NES GOCC_SPECIFIC_GRANULE_LUMEN [5]: 1.358
NES GOCC_CLATHRIN_ADAPTOR_COMPLEX [6]: 1.366
NES GOCC_MITOTIC_SPINDLE_POLE [6]: -1.382
NES GOCC_MEMBRANE_MICRODOMAIN (GSEA CAP vs Veh, C5 GO CC, padj 0.192589): 1.19
NES GOCC_CELL_BODY_MEMBRANE (GSEA CAP vs Veh, C5 GO CC, padj 0.197703): 1.35
NES GOCC_VACUOLAR_PROTON_TRANSPORTING_V_TYPE_ATPASE_COMPLEX (GSEA CAP vs Veh, C5 GO CC, padj 0.198626): 1.413
NES GOCC_DENDRITIC_SHAFT [7]: 1.333
NES GOCC_NUCLEAR_OUTER_MEMBRANE [7]: -1.409
NES GOCC_SAGA_TYPE_COMPLEX (GSEA CAP vs Veh, C5 GO CC, padj 0.206418): -1.409
NES GOCC_CLATHRIN_COAT [8]: 1.308
NES GOCC_PHOTORECEPTOR_INNER_SEGMENT [8]: 1.275
NES GOCC_INTEGRAL_COMPONENT_OF_SYNAPTIC_VESICLE_MEMBRANE (GSEA CAP vs Veh, C5 GO CC, padj 0.210702): 1.319
expression of Mapk signature genes in tumors (RNA-sequencing of treated allograft tumors): significant downregulation
GSEA NES, PID_Atm_pathway [9]: -1.751
GSEA NES, PID_Atr_pathway [9]: -2.041
expression of genes involved in the DNA repair machinery (capmatinib-treated vs vehicle tumors, PD cohort): downregulated
